The values below come from ChEMBL document CHEMBL1133554, “Synthesis, structure-activity relationships, and pharmacological profile of 9-amino-4-oxo-1-phenyl-3,4,6,7-tetrahydro[1,4]diazepino[6, 7,1-hi]indoles: discovery of potent, selective phosphodiesterase type 4 inhibitors” (J Med Chem, 2000).

Test [1] concerns the target T1, Phosphodiesterase 4 (Homo sapiens, UniProt P27815+Q08499+Q07343+Q08493). In words: Inhibition of phosphodiesterase type 4 isozyme (PDE4) from the U937 human cell line. Format: cell-based. The settings on record: u-937.
The target of test [2] is Phosphodiesterase 3 (Homo sapiens, UniProt Q14432+Q13370). In words: Inhibition of phosphodiesterase 3 (PDE3) isolated from the dog aorta. The format is protein assay, Canis lupus familiaris. As to conditions: target entry is the homologue from another species.
Test [3] deals with Phosphodiesterase, PDE1/PDE5 (Homo sapiens, UniProt O76074+P54750+Q01064+Q14123). In words: Inhibition of phosphodiesterase 1/5 isozyme (PDE1/5) mixture isolated from the guinea pig trachea. The arrangement: species or system Cavia porcellus. As to conditions: target entry is the homologue from another species.
Test [4] is described as follows: In vitro inhibition of TNF-alpha release from human peripheral blood monocytes. Format: functional.
Test [5] in a line: In vitro inhibition of TNF-alpha-release from human whole blood. The format is functional.
Test [6] in a line: In vivo inhibition of LPS-stimulated TNF-alpha release in Wistar rats at 10 mg/kg oral dose. Format: functional. As to conditions: Rattus norvegicus.
In test [7] the test system is Rattus norvegicus. In words: In vivo inhibition of antigen induced eosinophil recruitment in Brown-Norvway Rats at 10 mg/kg peroral dose. The settings on record: route oral. Format: functional.
Test [8] addresses T1, Phosphodiesterase 4. In words: PDE4-related emetic activity in ferrets after intravenous administration at 10 mg/kg. Set-up: dose 10 mg/kg. The settings on record: Mustela putorius furo, target entry is the homologue from another species. Format: functional, organism-based.
Test [9] has as its target T1, Phosphodiesterase 4. Kind of test: PDE4-related emetic activity in ferrets after intravenous administration at 40 mg/kg. The format is functional, organism-based. The arrangement: dose 40 mg/kg. The settings on record: Mustela putorius furo, target entry is the homologue from another species.

Consider `Nc1cc2c3c(c1)C(c1ccccc1)=N[C@@H](NC(=O)c1c(Cl)cncc1Cl)C(=O)N3CC2`, for which the concentration for half-maximal inhibition (IC50) in test [1] was 0.2 µM; in test [2], 80 µM; in [3], more than 100 µM; in [4], 0.038 µM; in test [5], 0.213 µM.

Regarding `COc1ccccc1C(=O)N[C@@H]1N=C(c2ccccc2)c2cc(N)cc3c2N(CC3)C1=O`, the half-inhibitory concentration (IC50) in [1] was 0.5 µM; in test [2] it was more than 100 µM; in test [3], 93.2 µM; in test [4], 0.123 µM; in test [5], 1.06 µM.

As for `Nc1c(Cl)cc(C(=O)N[C@@H]2N=C(c3ccccc3)c3cc(N4CCCC4)cc4c3N(CC4)C2=O)cc1Cl`, the results for the IC50 in [1], in test [2] and in test [3] were 0.08 µM, 10.6 µM and 39.2 µM, respectively.

As for `O=C(N[C@@H]1N=C(c2ccccc2)c2cccc3c2N(CC3)C1=O)c1cc2ccccc2cn1`, the IC50 in [1] was 5.5 µM; in [2], more than 100 µM; in [3] it was more than 100 µM.

As to `CC(=O)Nc1cc2c3c(c1)C(c1ccccc1)=N[C@@H](NC(=O)c1ccncc1)C(=O)N3CC2`, the results for the IC50 in [1], in [2] and in test [3] were 0.7 µM, 70 µM and 30.1 µM, respectively.

For the compound `Nc1cc2c3c(c1)C(c1ccccc1)=N[C@@H](NC(=O)c1cnc4ccccc4c1)C(=O)N3CC2`, the IC50 is 0.2 µM in test [1], 53.9 µM in test [2] and 90.7 µM in test [3].

Turning to `Nc1cc2c3c(c1)C(c1ccccc1)=N[C@@H](NC(=O)c1cc4ccccc4cn1)C(=O)N3CC2`, the half-maximal inhibitory concentration (IC50) in test [1] was 0.1 µM; in test [2], 48.5 µM; in [3], more than 100 µM; in test [4], 0.048 µM; in [5] it was 3.37 µM. The inhibition in vivo at 10 mg/kg was -16% in test [6] and -62.9% in test [7].

Take `COc1ccccc1C(=O)N[C@@H]1N=C(c2ccccc2)c2cc(C)cc3c2N(CC3)C1=O`: the IC50 turned out to be 1.3 µM in test [1], 28.8 µM in test [2] and 50.6 µM in test [3].

On to `O=C(N[C@@H]1N=C(c2ccccc2)c2cc([N+](=O)[O-])cc3c2N(CC3)C1=O)c1cc2ccccc2cn1`, for which, in test [1], the IC50 was more than 100 µM.

As to `Cc1cc2c3c(c1)C(c1ccccc1)=N[C@@H](NC(=O)c1ccncc1)C(=O)N3CC2`, the R+V in test [8] was 0 90 min. Moreover, the IC50 in test [2] turned out to be 35.8 µM; in [3] it was 73.4 µM; in test [4] it was 0.99 µM; in test [5], 61 µM. In addition, the inhibition in vivo at 10 mg/kg in test [6] was -25%. This compound yielded an ED50 in [7] of 5.06 mg/kg.

`Cc1cc2nnc(C(=O)N[C@@H]3N=C(c4ccccc4)c4cc(N)cc5c4N(CC5)C3=O)c(C)n2n1`: the IC50 in test [1] is 0.2 µM; in test [2], 48.6 µM; in [3] it was 72 µM; in test [4], 0.26 µM; in test [5], 0.75 µM. Besides, the 50% effective dose (ED50) in [7] was determined as 1.8 mg/kg.

As to `CC(C)(C)OC(=O)Nc1cnccc1C(=O)N[C@@H]1N=C(c2ccccc2)c2cccc3c2N(CC3)C1=O`, the half-maximal inhibitory concentration (IC50) was 6.2 µM in [1], 54.7 µM in [2] and 53.3 µM in test [3].

Consider `COc1cc2c3c(c1)C(c1ccccc1)=N[C@@H](NC(=O)c1cnc4ccccc4c1)C(=O)N3CC2`, for which the results for the IC50 in test [1], in test [2] and in test [3] were 1.7 µM, 19.4 µM and 16.1 µM, respectively.

As to `Cc1cc2nnc(C(=O)N[C@@H]3N=C(c4ccccc4)c4cc(N5CCCC5)cc5c4N(CC5)C3=O)c(C)n2n1`, the concentration for half-maximal inhibition (IC50) in test [1] was 0.2 µM; in [2], 22.2 µM; in [3], more than 100 µM.

In the case of `CC(C)(C)OC(=O)Nc1cnccc1C(=O)N[C@@H]1N=C(c2ccccc2)c2cc(N)cc3c2N(CC3)C1=O`, in test [8], the R+V was 0 90 min. In addition, the IC50 was determined as 58.2 µM in test [2] and 67.7 µM in [3]. Besides, the inhibition in vivo at 10 mg/kg in [6] is -87%. In [7], this compound registered an ED50 of 5.03 mg/kg.

Take `Nc1cc2c3c(c1)C(c1ccccc1)=N[C@@H](NC(=O)c1ccncc1)C(=O)N3CC2`: the half-maximal inhibitory concentration (IC50) in [1] was 0.5 µM; in [2], more than 100 µM; in test [3] it was more than 100 µM; in [4], 0.48 µM; in [5], 1.09 µM. The R+V in [9] is 0 90 min. In [6], the inhibition in vivo at 10 mg/kg was -71%. The same compound returned an ED50 in test [7] of 1.89 mg/kg.

For the compound `O=C(N[C@@H]1N=C(c2ccccc2)c2cccc3c2N(CC3)C1=O)c1cccnc1`, the IC50 in [1] was 10.5 µM; in test [2] it was more than 100 µM; in test [3] it was more than 100 µM.

For the compound `COc1cc2c3c(c1)C(c1ccccc1)=N[C@@H](NC(=O)c1ccncc1)C(=O)N3CC2`, the half-inhibitory concentration (IC50) in [1] turned out to be 4.4 µM; in test [2], 40.8 µM; in test [3], 16.1 µM.

On to `Cc1cc2c3c(c1)C(c1ccccc1)=N[C@@H](NC(=O)c1cc4ccccc4cn1)C(=O)N3CC2`, for which the IC50 in test [2] and in test [3] was more than 100 µM in each case.

For the compound `COc1cc2c3c(c1)C(c1ccccc1)=N[C@@H](NC(=O)c1nnc4cc(C)nn4c1C)C(=O)N3CC2`, the half-inhibitory concentration (IC50) in test [1] is 2.7 µM; in test [2], 46 µM; in test [3], 14.1 µM.

Regarding `CC(=O)Nc1cc2c3c(c1)C(c1ccccc1)=N[C@@H](NC(=O)c1cc(Cl)c(N)c(Cl)c1)C(=O)N3CC2`, the IC50 in [1] is 0.09 µM; in [2], 4.5 µM; in test [3], 3.5 µM.

`Cc1cc2c3c(c1)C(c1ccccc1)=N[C@@H](NC(=O)c1cc(Cl)c(N)c(Cl)c1)C(=O)N3CC2`: the figures for the 50% inhibitory concentration (IC50) in test [1], in test [2] and in test [3] were 0.3 µM, 10.3 µM and more than 100 µM, respectively. Moreover, the inhibition in vivo at 10 mg/kg in test [7] was -21%.

`O=C(N[C@@H]1N=C(c2ccccc2)c2cc([N+](=O)[O-])cc3c2N(CC3)C1=O)c1cccnc1` displayed a half-maximal inhibitory concentration (IC50) in test [1] of 10.8 µM.

As for `Nc1cc2c3c(c1)C(c1ccccc1)=N[C@@H](NC(=O)c1cc(Cl)c(N)c(Cl)c1)C(=O)N3CC2`, the half-inhibitory concentration (IC50) in test [1] was 0.04 µM; in test [2], 51.6 µM; in test [3], more than 100 µM; in test [4], 0.011 µM; in test [5], 0.438 µM. Besides, the inhibition in vivo at 10 mg/kg in test [7] is -61.8%.

In the case of `Nc1ccc(C(=O)N[C@@H]2N=C(c3ccccc3)c3cc(N)cc4c3N(CC4)C2=O)cc1`, the R+V in test [8] was 0 90 min. In addition, the 50% inhibitory concentration (IC50) was 0.69 µM in [1]; 86.8 µM in test [2]; 93.2 µM in test [3]; 0.443 µM in test [4]; 1.52 µM in test [5]. Further, the inhibition in vivo at 10 mg/kg in test [6] is -71%. Also, it took a dose of 10.8 mg/kg to reach the 50% effect level in test [7] (ED50).

On to `CN(C)c1cc2c3c(c1)C(c1ccccc1)=N[C@@H](NC(=O)c1cc(Cl)c(N)c(Cl)c1)C(=O)N3CC2`, for which the IC50 in test [1] amounted to 0.2 µM; in test [2] it was 3.2 µM; in test [3], 5.3 µM.

For the compound `Nc1cnccc1C(=O)N[C@@H]1N=C(c2ccccc2)c2cccc3c2N(CC3)C1=O`, the IC50 in test [1] was 16.2 µM; in [2], 90 µM; in [3], more than 100 µM.

As for `O=C(N[C@@H]1N=C(c2ccccc2)c2cccc3c2N(CC3)C1=O)c1c(Cl)cncc1Cl`, the IC50 was 4.7 µM in test [1], more than 100 µM in [2] and more than 100 µM in [3].

In the case of `COc1ccc([C@]2(C#N)CC[C@@H](C(=O)O)CC2)cc1OC1CCCC1` [CILOMILAST], in test [8], the R+V was 59.5 90 min. In addition, the half-inhibitory concentration (IC50) in [5] came to 7.3 µM. For the same compound, the ED50 in test [6] was determined as 3 mg/kg.

In the case of `Cc1cc2c3c(c1)C(c1ccccc1)=N[C@@H](NC(=O)c1nnc4cc(C)nn4c1C)C(=O)N3CC2`, the half-maximal inhibitory concentration (IC50) was 0.7 µM in test [1]; more than 100 µM in [2]; more than 100 µM in test [3]; 5.35 µM in test [4]; more than 30 µM in test [5]. For the same compound, the ED50 in test [7] came to 33.9 mg/kg.

`Nc1cc2c3c(c1)C(c1ccccc1)=N[C@@H](NC(=O)c1ccncc1N)C(=O)N3CC2`: the R+V in test [8] is 3.5 90 min. In addition, the 50% inhibitory concentration (IC50) in test [1] is 0.7 µM; in test [2], more than 100 µM; in [3] it was more than 100 µM; in test [4], 0.08 µM; in test [5], 0.398 µM. The results for the inhibition in vivo at 10 mg/kg in [6] and in test [7] were -89% and -82%, respectively.

`O=C(N[C@@H]1N=C(c2ccccc2)c2cc(N3CCCC3)cc3c2N(CC3)C1=O)c1ccncc1`: the results for the 50% inhibitory concentration (IC50) in test [1], in test [2] and in test [3] were 1.4 µM, 18 µM and 34 µM, respectively.

With `COc1ccc(C2CNC(=O)C2)cc1OC1CCCC1` (configuration not stated) [ROLIPRAM], the IC50 in test [2] is more than 100 µM; in test [4], 0.083 µM; in test [5], 0.94 µM. In addition, the inhibition in vivo at 10 mg/kg in [6] came out at 94%. The same compound had an ED50 in test [7] of 4.66 mg/kg.

As to `O=C(N[C@@H]1N=C(c2ccccc2)c2cccc3c2N(CC3)C1=O)c1ccncc1`, the concentration for half-maximal inhibition (IC50) in test [1] was 20.5 µM; in test [2], more than 100 µM; in test [3], more than 100 µM.

Regarding `Cc1cc2c3c(c1)C(c1ccccc1)=N[C@@H](NC(=O)c1c(Cl)cncc1Cl)C(=O)N3CC2`, the figures for the half-maximal inhibitory concentration (IC50) in [1], in [2] and in test [3] were 1 µM, 19.5 µM and 38 µM, respectively. In test [7], the ED50 is 63.7 mg/kg.
